Assays:
[1] = tested on: neuroblastoma (N1E115) cells; test: Assay for inhibition of cell proliferation (MTT), neuroblastoma cells; assay type: cell-based, mouse; conditions: for IC50: neuroblastoma (N1E115) cells, MTT; for N1E115 Ratio (paclitaxel/compound): ratio of paclitaxel IC50 to compound IC50, N1E115 cells
Experimental: (§1) Human rabdomyosarcoma (RD) and mouse neuroblastoma (N1E115) cell lines were obtained from the American Type Culture Collection (ATCC, Rockville, Md.). The RD cells were grown in Dulbecco's modified eagle medium (DMEM) supplemented with 4 mM glutamine, containing 10% fetal bovine serum (ATCC #30-2020) and supplemented with 1% penicillin and 1% streptomycin. When confluent, the cells were maintained by passage (about once per week) until needed. The N1E115 line was also cultured in DMEM with 4 mM glutamine containing 10% newborn calf serum (Gibco, Grand Island, N.Y.) and likewise maintained.
(§2) The proliferation of rhabdomyosarcoma cells was determined using a cell proliferation assay kit based on the formation of insoluble formazan crystals from 3-(4,5-dimethylthiazol-2-yl)-2,5-diphenyltetrazolium bromide (MTT). The rhabdomyosarcoma cells were cultured to a density of 10^5 cells per mL. The cell culture (100 μL) was dispensed into wells of a 96-well plate to 10^4 cells per well. The plate was incubated at 37° C. for 3 h until the cells firmly attached to the well surfaces.
(§3) A second 96-well round bottom plate was made up containing the test compounds, serially diluted to cover the concentration range of interest using the DMEM medium plus antibiotics. The final concentration of DMSO in which the compounds were initially dissolved was maintained at a constant 0.5% in each well and the volume of the compounds in the plate was 220 μL. Following the 3 h incubation the medium was removed from the plate containing the cells and replaced with 200 μL of the solutions containing the compounds. The cells were incubated for a further 96 h before the assessment of growth inhibition using MTT.
(§4) The cells were left bathing in 100 μL of the saline solution to which was added 100 μL of MTT in saline (12 mM). Incubation was continued for 4 h at 37° C. to produce the blue formazan color which was quantified by optical density measurements at 570 nm. Background correction of all test wells was performed by subtraction of the yellow MTT solution color measured at 570 nm in cell-free wells. The data were normalized to solvent only control wells.

[2] = tested on: rhabdomyosarcoma (RD) cells; test: Assay for inhibition of cell proliferation (MTT), rhabdomyosarcoma cells; assay type: cell-based, human; conditions: for IC50: rhabdomyosarcoma (RD) cells, MTT, 96 h incubation; for RD Ratio (paclitaxel/compound): ratio of paclitaxel IC50 to compound IC50, RD cells
Experimental: as §1, §2, §3, §4

Structure (SMILES): CC[C@H](C)Cn1c(-c2c(F)cc(OCCCN(C)C)cc2F)c(Cl)nc(-n2ccc(C)n2)c1=O [Compound 498, 5-chloro-6-[4-[3-(dimethylamino)propoxy]-2,6-difluorophenyl]-1-[(2S)-2-methylbutyl]-3-(3-methyl-1H-pyrazol-1-yl)-2(1H)-pyrazinone]
- IC50 ([1]; Mus musculus, N1E-115): 0.014 µM
- N1E115 Ratio (paclitaxel/compound) [1]: 6.29
- IC50 ([2]; Homo sapiens): 0.0038 µM
- RD Ratio (paclitaxel/compound) [2]: 4.47

Structure (SMILES): CC[C@H](C)Cn1c(-c2c(F)cc(OCCN(C)C)cc2F)c(Cl)nc(-n2cccn2)c1=O [Compound 483]
- IC50 [1]: 0.081 µM
- N1E115 Ratio (paclitaxel/compound) [1]: 1.09
- RD Ratio (paclitaxel/compound) [2]: 0.43
- IC50 [2]: 0.0397 µM

Structure (SMILES): CC(C)Cn1c(-c2c(F)cccc2F)c(Cl)nc(-n2cccn2)c1=O [Compound 1, 5-Chloro-6-(2,6-difluorophenyl)-1-(2-methylpropyl)-3-(1H-pyrazol-1-yl)-2(1H)-pyrazinone]
- IC50 ([1]; Mus musculus, N1E-115): 0.11 µM
- N1E115 Ratio (paclitaxel/compound) [1]: 0.80
- IC50 ([2]; Homo sapiens): 0.5 µM
- RD Ratio (paclitaxel/compound) [2]: 0.03

Structure (SMILES): CC[C@H](C)Cn1c(-c2c(F)cc(OCCCNC)cc2F)c(Cl)nc(-n2ccc(C)n2)c1=O [Compound 494, 5-chloro-6-[2,6-difluoro-4-[3-(methylamino)propoxy]phenyl]-1-[(2S)-2-methylbutyl]-3-(3-methyl-1H-pyrazol-1-yl)-2(1H)-pyrazinone]
- IC50 ([1]; Mus musculus, N1E-115): 0.0013 µM
- N1E115 Ratio (paclitaxel/compound) [1]: 67.69
- IC50 ([2]; Homo sapiens): 0.0004 µM
- RD Ratio (paclitaxel/compound) [2]: 42.50

Structure (SMILES): CCC(C)Cn1c(-c2ccc(OCCN(C)C)cc2F)c(Cl)nc(-n2cccn2)c1=O (centres unmarked) [Compound 477]
- IC50 [1]: 0.462 µM
- N1E115 Ratio (paclitaxel/compound) [1]: 0.19
- RD Ratio (paclitaxel/compound) [2]: 0.06
- IC50 [2]: 0.262 µM

Structure (SMILES): CC[C@H](C)Cn1c(-c2ccc(F)cc2Cl)c(Cl)nc(-n2cccn2)c1=O [Compound 263]
- IC50 [1]: 0.08 µM
- N1E115 Ratio (paclitaxel/compound) [1]: 1.10
- RD Ratio (paclitaxel/compound) [2]: 0.34
- IC50 [2]: 0.05 µM

Structure (SMILES): CC[C@H](C)Cn1c(-c2c(F)cc(OC(C)=O)cc2F)c(Cl)nc(-n2cccn2)c1=O [Compound 501]
- IC50 [1]: 0.062 µM
- N1E115 Ratio (paclitaxel/compound) [1]: 1.42
- RD Ratio (paclitaxel/compound) [2]: 0.30
- IC50 [2]: 0.057 µM

Structure (SMILES): CC[C@H](C)Cn1c(-c2c(F)cc(OC)cc2F)c(Cl)nc(-n2cccn2)c1=O [Compound 457, 5-Chloro-1-[(2S)-2-methylbutyl)-3-(1H-pyrazol-1-yl)-6-(2,6-difluoro-4-methoxyphenyl)-2(1H)-pyrazinone]
- IC50 ([1]; Mus musculus, N1E-115): 0.039 µM
- N1E115 Ratio (paclitaxel/compound) [1]: 2.26
- IC50 ([2]; Homo sapiens): 0.0011 µM
- RD Ratio (paclitaxel/compound) [2]: 15.45

Structure (SMILES): CC[C@H](C)Cn1c(-c2c(F)cc(O)cc2F)c(Cl)nc(-n2cccn2)c1=O [Compound 503]
- IC50 [1]: 0.256 µM
- N1E115 Ratio (paclitaxel/compound) [1]: 0.34
- RD Ratio (paclitaxel/compound) [2]: 0.15
- IC50 [2]: 0.114 µM

Structure (SMILES): O=c1c(-n2cccn2)nc(Cl)c(-c2c(F)cc(F)cc2F)n1CC1CC1 [Compound 460]
- IC50 [1]: 0.17 µM
- N1E115 Ratio (paclitaxel/compound) [1]: 0.52
- RD Ratio (paclitaxel/compound) [2]: 0.19
- IC50 [2]: 0.09 µM

Structure (SMILES): CCCCn1c(-c2c(F)cc(F)cc2F)c(Cl)nc(-c2ccccn2)c1=O [Compound 240]
- IC50 [1]: 0.059 µM
- N1E115 Ratio (paclitaxel/compound) [1]: 1.49
- RD Ratio (paclitaxel/compound) [2]: 0.01
- IC50 [2]: 1.67 µM

Structure (SMILES): CC[C@H](C)Cn1c(-c2c(F)cc(OCCCN(C)C)cc2F)c(Cl)nc(-n2cccn2)c1=O [Compound 482, 5-chloro-6-[4-[3-(dimethylamino)propoxy]-2,6-difluorophenyl]-1-[(2S)-2-methylbutyl]-3-(1H-pyrazol-1-yl)-2(1H)-pyrazinone]
- IC50 ([1]; Mus musculus, N1E-115): 0.0026 µM
- N1E115 Ratio (paclitaxel/compound) [1]: 33.85
- IC50 ([2]; Homo sapiens): 0.0015 µM
- RD Ratio (paclitaxel/compound) [2]: 11.33

Structure (SMILES): CN(C)CCCOc1cc(F)c(-c2c(Cl)nc(-n3cccn3)c(=O)n2-c2cccc(F)c2)c(F)c1 [Compound 491]
- IC50 [1]: 0.022 µM
- N1E115 Ratio (paclitaxel/compound) [1]: 4.00
- RD Ratio (paclitaxel/compound) [2]: 0.60
- IC50 [2]: 0.0285 µM

Structure (SMILES): CC[C@H](C)Cn1c(-c2c(F)cc(OCCCNC)cc2Cl)c(Cl)nc(-n2cccn2)c1=O [Compound 493, 5-chloro-6-[2-chloro-6-fluoro-4-[3-(methylamino)propoxy]phenyl]-1-[(2S)-2-methylbutyl]-3-(1H-pyrazol-1-yl)-2(1H)-pyrazinone]
- IC50 ([1]; Mus musculus, N1E-115): 0.0045 µM
- N1E115 Ratio (paclitaxel/compound) [1]: 19.56
- IC50 ([2]; Homo sapiens): 0.0006 µM
- RD Ratio (paclitaxel/compound) [2]: 28.33

Structure (SMILES): CCC(C)Cn1c(-c2ccc(OCCN3CCCC3)cc2F)c(Cl)nc(-n2cccn2)c1=O (centres unmarked) [Compound 478]
- IC50 [1]: 1.09 µM
- N1E115 Ratio (paclitaxel/compound) [1]: 0.08
- RD Ratio (paclitaxel/compound) [2]: 0.04
- IC50 [2]: 0.47 µM

Structure (SMILES): CC[C@H](C)Cn1c(-c2c(F)cc(OCCCN(C)C(C)=O)cc2F)c(Cl)nc(-n2cccn2)c1=O [Compound 499]
- IC50 [1]: 0.012 µM
- N1E115 Ratio (paclitaxel/compound) [1]: 7.33
- RD Ratio (paclitaxel/compound) [2]: 1.70
- IC50 [2]: 0.01 µM

Structure (SMILES): CNCCCOc1cc(F)c(-c2c(Cl)nc(-n3cccn3)c(=O)n2CC(C)C)c(F)c1.Cl [Compound 500]
- IC50 [1]: 0.016 µM
- N1E115 Ratio (paclitaxel/compound) [1]: 5.50
- RD Ratio (paclitaxel/compound) [2]: 8.50
- IC50 [2]: 0.002 µM

Structure (SMILES): Cc1ccn(-c2nc(Cl)c(-c3c(F)cc(OCCCN(C)C)cc3F)n(CC(C)C)c2=O)n1 [Compound 497]
- IC50 [1]: 0.18 µM
- N1E115 Ratio (paclitaxel/compound) [1]: 0.49
- RD Ratio (paclitaxel/compound) [2]: 0.22
- IC50 [2]: 0.077 µM

Structure (SMILES): CC[C@H](C)Cn1c(-c2c(F)cc(OC)cc2F)c(Cl)nc(-n2ccc(C)n2)c1=O [Compound 504]
- IC50 [1]: 0.102 µM
- N1E115 Ratio (paclitaxel/compound) [1]: 0.86
- RD Ratio (paclitaxel/compound) [2]: 1.04
- IC50 [2]: 0.0163 µM

Structure (SMILES): CCC(C)Cn1c(-c2c(F)cc(OCCN3CCCC3)cc2F)c(Cl)nc(-n2cccn2)c1=O (centres unmarked) [Compound 480]
- IC50 [1]: 0.393 µM
- N1E115 Ratio (paclitaxel/compound) [1]: 0.22
- RD Ratio (paclitaxel/compound) [2]: 0.04
- IC50 [2]: 0.463 µM

Structure (SMILES): CNCCCOc1cc(F)c(-c2c(Cl)nc(-n3cccn3)c(=O)n2-c2cccc(F)c2)c(F)c1.Cl [Compound 492]
- IC50 [1]: 0.016 µM
- N1E115 Ratio (paclitaxel/compound) [1]: 5.50
- RD Ratio (paclitaxel/compound) [2]: 5.15
- IC50 [2]: 0.0033 µM

Structure (SMILES): CCC(C)Cn1c(-c2c(F)cc(F)cc2F)c(Cl)nc(C(N)=O)c1=O (centres unmarked) [Compound 415]
- IC50 [1]: 0.06 µM
- N1E115 Ratio (paclitaxel/compound) [1]: 1.47
- RD Ratio (paclitaxel/compound) [2]: 0.43
- IC50 [2]: 0.04 µM

Structure (SMILES): CNCCCOc1cc(F)c(-c2c(Cl)nc(-n3ccc(C)n3)c(=O)n2CC(C)C)c(F)c1 [Compound 496]
- IC50 [1]: 0.09 µM
- N1E115 Ratio (paclitaxel/compound) [1]: 0.98
- RD Ratio (paclitaxel/compound) [2]: 0.40
- IC50 [2]: 0.043 µM

Structure (SMILES): CC(C)Cn1c(-c2c(F)cc(OCCCN(C)C)cc2F)c(Cl)nc(-n2cccn2)c1=O [Compound 495]
- IC50 [1]: 0.353 µM
- N1E115 Ratio (paclitaxel/compound) [1]: 0.25
- RD Ratio (paclitaxel/compound) [2]: 0.49
- IC50 [2]: 0.035 µM

Structure (SMILES): O=c1c(-n2cccn2)nc(Cl)c(-c2c(F)cc(F)cc2F)n1-c1cccc(F)c1 [Compound 324]
- IC50 [1]: 0.147 µM
- N1E115 Ratio (paclitaxel/compound) [1]: 0.60
- RD Ratio (paclitaxel/compound) [2]: 0.34
- IC50 [2]: 0.05 µM

Structure (SMILES): CN(C)CCCOc1cc(F)c(-c2c(Cl)nc(-n3cccn3)c(=O)n2CC2CC2)c(F)c1 [Compound 481, 5-chloro-1-cyclopropylmethyl-6-[4-[3-(dimethylamino)propoxy]-2,6-difluorophenyl]-3-(1H-pyrazol-1-yl)-2(1H)-pyrazinone]
- IC50 ([1]; Mus musculus, N1E-115): 0.03 µM
- N1E115 Ratio (paclitaxel/compound) [1]: 2.93
- IC50 ([2]; Homo sapiens): 0.0032 µM
- RD Ratio (paclitaxel/compound) [2]: 5.37

— patent US20090186907A1, “Pyrazinones As Cellular Proliferation Inhibitors” (E.I. DuPont De Nemours and Company, priority 2006, published 2009)
